In patent US11332490B1, “Compounds and methods for treating osteoarthritis” (Academia Sinica, priority 2021, dated 2022):
“Also recorded” adds a separate entry of the source. Blank lines part the entries; values can stand above or below the compound they belong to.

Experiments:
Sulf-1 [1] = target: T1, Sulf-1 (Homo sapiens, UniProt Q8IWU6); test: HPLC assay of sulfate ion release from the substrate by Sulf-1; details: substrate 480 μM, treated with human Sulf-1, HPLC
Method: (§1) HPLC assay. […] Release of the sulfate ion from the substrate was quantified via HPLC. Each sample (5 μL) was injected to AS9HC anion-exchange column (Dionex), and the sulfate ion was eluted by 9 mM Na2CO3 then analyzed by a conductivity detector (PROD, AERS500, 4 mm, Thermal) with reagent-free controller (PROD, RFC-10) and compared with a standard curve with Na2SO4 (Merck) from 0 to 500 μM.

Sulf-1 [2] = target: T1, Sulf-1; test: Competition assay with 4-MUS substrate (fluorogenic); format: biochemical; design: made in house; details: for EC50: competition with 4-MUS for Sulf-1
Method: Competition assay with 4-MUS substrate. […] A control mixture without the competing substrate was defined as 100% fluorescent intensity, and the sample with substrate was determined as percentage of fluorescent intensity: (Fluorescent intensity of substrate sample)/(Fluorescent intensity of control sample).
HS oligosaccharides of Example 1.2 were used as competing substrates in the presence of 4-MUS for the identification of Sulf-1 substrate. Compounds 18-20 as well as the commercially available heparin 3000 were independently assessed for their competing effect on 4-MUS cleavage by Sulf-1 to yield the fluorescent 4-methylumbelliferone (4-MU) (FIG. 1, (A)).

Sulf-1 [3] = target: T1, Sulf-1; test: Sulf-1 inhibition assay (4-MU released from 4-MUS)
Description: Sulf-1 inhibition assay. […] The data obtained were fitted to the Michaelis-Menten equation using the GraphPad to determine the enzyme inhibition parameters.

human Sulf-1d417-726 = target: T2, human Sulf-1d417-726 (Homo sapiens, UniProt Q8IWU6, DEL417-726); test: Determination of dissociation constant (KD) using surface plasmon resonance; format: binding; details: compound immobilized on CM5 sensor chip, 1:1 Langmuir model
T2 construct: made in house
Method: Determination of dissociation constant (KD) using surface plasmon resonance. Compound 46 was immobilized on the surface of a Biacore sensor chip (GE Healthcare) according to the manufacturer's guidelines using Biacore T200 system. The kinetic analysis study was performed at different concentrations of hSulf1d417-726 protein upon serial dilution to 250, 125, 63, 31 and 15 nM in running buffer [20 mM NaOAc (pH 5.0), 150 mM NaCl, and 0.05% Tween 20] and injected on to the chip surface with a flow rate of 25 μL/min at 25° C. In each run, the chip sensor surface was regenerated by injecting 4 M NaCl. The titration curves fit well to a 1:1 Langmuir binding model for calculations of equilibrium constants.
With highest inhibitory activity, the binding affinity of the inhibitor 46 with human Sulf-1 was further measured by surface plasmon resonance (SPR). The hydrophilic domain-deleted mutant of Sulf-1, namely human Sulf-1d417-726, lacking two furin-type proteinase cleavage sites responsible for forming the disulfide-bonded heterodimers of 75- and 50-kDa subunits with retained enzyme activity was constructed according to the literature report. Compound 46 was immobilized on the CM5 sensor chip, and aliquots of human Sulf-1d417-726 at gradient concentrations were applied onto the chip.

[4] = system: NCCCCCO[C@@H]1OC(C(=O)O)C(O[C@H]2OC(COS(=O)(=O)O)[C@@H](O[C@@H]3OC(C(=O)O)C(O)[C@@H](O)C3OS(=O)(=O)O)[C@H](O)C2NS(=O)(=O)O)[C@@H](O)C1OS(=O)(=O)O; test: purified protein, by the assay type; details: other: released sulfate at different substrate concentrations; pH 7.4; 37.0 °C
Method: as §1

Compound: NCCCCCO[C@@H]1OC(C(=O)O)C(O[C@@H]2OC(COS(=O)(=O)O)[C@@H](O)C(O)C2NS(=O)(=O)O)[C@@H](O)C1OS(=O)(=O)O (stereo partly drawn) [Compound 18]
sulfate concentration upon hydrolysis by Sulf-1 (Sulf-1 [1]): 5.9 µM | fluorescence intensity (4-MUS hydrolysis, % of control) (Sulf-1 [2]; competitor 320 μM, 4-MUS 4.35 mM, 4-MUS with Sulf-1 in pure water = 100%): 94.5%

Compound: NCCCCCO[C@@H]1O[C@@H](C(=O)O)[C@@H](O[C@H]2O[C@H](COS(=O)(=O)O)[C@@H](O[C@@H]3O[C@@H](C(=O)O)[C@@H](O[C@H]4O[C@H](COS(=O)(=O)O)[C@@H](O)[C@H](O)[C@H]4NS(=O)(=O)O)[C@H](O)[C@H]3OS(=O)(=O)O)[C@H](O)[C@H]2NS(=O)(=O)O)[C@H](O)[C@H]1OS(=O)(=O)O [Compound 19]
sulfate concentration upon hydrolysis by Sulf-1 (Sulf-1 [1]): 46.2 µM | EC50 (Sulf-1 [2]): 87800 nM | competing effect on 4-MUS cleavage by Sulf-1 (in words) (Sulf-1 [2]; competitor 320 μM (0.32 mM), 4-MUS 4.35 mM): strongly compete with 4-MUS; also recorded: good binder

Compound: NCCCCCO[C@@H]1OC(C(=O)O)C(O[C@H]2OC(COS(=O)(=O)O)[C@@H](O[C@@H]3OC(C(=O)O)C(O)[C@@H](O)C3OS(=O)(=O)O)[C@H](O)C2NS(=O)(=O)O)[C@@H](O)C1OS(=O)(=O)O (stereo partly drawn) [Compound 36]
EC50 (Sulf-1 [2]): 3800 nM

Compound: human Sulf-1 (Homo sapiens)
Km [4]: 25.8 µM

Now from value to compound:

inhibition at 700 µM (Sulf-1 [3]; read-out: Sulf-1 activity inhibited): 20%
Compound: NCCCCCO[C@@H]1OC(C(=O)O)C(O[C@H]2OC(COS(N)(=O)=O)[C@@H](O)C(O)C2NS(=O)(=O)O)[C@@H](O)C1OS(=O)(=O)O (stereo partly drawn) [Compound 45]

IC50 (Sulf-1 [3]): 530 nM | Ki (Sulf-1 [3]): 360 nM | Kd (human Sulf-1d417-726): 12 nM
Compound: NCCCCCO[C@@H]1O[C@@H](C(=O)O)[C@@H](O[C@H]2O[C@H](COS(N)(=O)=O)[C@@H](O[C@@H]3O[C@@H](C(=O)O)[C@@H](O)[C@H](O)[C@H]3OS(=O)(=O)O)[C@H](O)[C@H]2NS(=O)(=O)O)[C@H](O)[C@H]1OS(=O)(=O)O [Compound 46]

IC50 (Sulf-1 [3]): 29600 nM
Compound: NCCCCCO[C@@H]1O[C@@H](C(=O)O)[C@@H](O[C@H]2O[C@H](COS(N)(=O)=O)[C@@H](O[C@@H]3O[C@@H](C(=O)O)[C@@H](O[C@H]4O[C@H](COS(N)(=O)=O)[C@@H](O)[C@H](O)[C@H]4NS(=O)(=O)O)[C@H](O)[C@H]3OS(=O)(=O)O)[C@H](O)[C@H]2NS(=O)(=O)O)[C@H](O)[C@H]1OS(=O)(=O)O [Compound 47]
